# Measured values published in publication PMC9814792 (Communications Chemistry, 2022).
# How the values were obtained:
# [1] = system: HCT116/OxR cells; test: 72 h cell viability (MTT) assay; type: cell-based, human; details: HCT116/OxR, 72 h continuous exposure; read-out: IC50 value (95% confidence interval)
# Procedure: Absorbance was measured at 450 nm (at 620 nm as reference) using the multimode plate reader Tecan Infinite 200 Pro (Zurich, Switzerland). Cytotoxicity was expressed as IC50 values calculated from full dose-response curves using the 4 parameter nonlinear regression model of GraphPad Prism 8 software (La Jolla, CA, USA).
# [2] = system: BEC endothelial cells; test: 72 h cell viability (MTT) assay; type: cell-based, human
# Procedure: (§1) Cells were seeded (3–4 ×10^3 cells/well) in 96-well plates in 100 µL and after 24 h recovery treated with 100 µL of compounds at the indicated concentrations in triplicates. After 72 h drug exposure cell viability was determined by 3-(4,5-dimethylthiazol-2-yl)-2,5-diphenyltetrazolium bromide (MTT)-vitality assay (EZ4U, Biomedica, Vienna, Austria) following the manufacturer’s recommendations, as published. Absorbance was measured at 450 nm (at 620 nm as reference) using the multimode plate reader Tecan Infinite 200 Pro (Zurich, Switzerland). Cytotoxicity was expressed as IC50 values calculated from full dose-response curves using the 4 parameter nonlinear regression model of GraphPad Prism 8 software (La Jolla, CA, USA).
# [3] = system: HCT116 cells; test: 72 h cell viability (MTT) assay; type: cell-based, human; details: HCT116, 72 h continuous exposure; read-out: IC50 value (95% confidence interval)
# Procedure: as §1
# [4] = system: HaCat keratinocytes; test: 72 h cell viability (MTT) assay; type: cell-based, human
# Procedure: as §1
# [5] = system: HCT116 and HCT116/OxR cells; test: In vitro platinum cell uptake by ICP-MS; type: cell-based, human; details: 3 h exposure
# Procedure: Cells were seeded at 1.5 ×10^5 cells/well in six-well plates in 1.5 mL and after 24 h recovery treated with 500 µL of compounds at the indicated concentrations in triplicates. After 3 h drug exposure, cells were detached, washed twice with phosphate-buffered saline (PBS), dried at RT for 15 min and lysed in 100 µL HNO3 (69%, Rotipuran Supra, Carl Roth, Karlsruhe, Germany) for 1 h at RT. The lysate was added to fresh tubes containing 200 µL ddH2O. ICP-MS measurements were performed with an Agilent 8800 ICP-MS/MS instrument (Agilent Technologies, Tokyo, Japan). The sample introduction system consisted of a MicroMist nebulizer (200 μL min^−1 nominal sample uptake) and a quartz double-pass spray chamber. The instrument was tuned on a daily basis in order to achieve maximum sensitivity, low oxide formation, and low doubly charged ratios. Platinum was monitored in no gas mode with an integration time of 0.3 s. The flow injection measurements were performed with a bioinert HPLC 1260 (Agilent Technologies, Waldbronn, Germany), which was directly connected to the nebulizer of the ICP-MS/MS instrument with a PEEK tubing. The following chromatographic conditions were used: injection volume: 10 µL; flow rate: 0.30 mL min^-1; isocratic elution; CH3COONH4 (50 mM, pH = 6.8) aqueous solution was employed as mobile phase. The data were recorded and evaluated with the Agilent MassHunter Chromatography software package, MassHunter 4.6., 2019.
# [6] = system: HCT116 and HCT116/OxR cells; test: Cellular GSH content (GSH/GSSG-Glo); type: cell-based, human; details: 24 h exposure, single agent
# Procedure: (§2) GSH levels in HCT116 and HCT116/OxR cells (7.5 × 10^4 cells per well in 96-well plates, in triplicate), or in CT26 tumor tissues (25–50 mg/sample) were determined using the luminescence-based detection system GSH/GSSG-Glo^TM assay (Promega, Madison, WI) following the manufacturer’s recommendations. Quantifications are based on the comparison with a GSH standard curve delivered in the assay and normalized to the total protein content of the samples determined by the Micro BCA^TM protein assay kit (Thermo Scientific).
# [7] = Serum pharmacokinetics (platinum by ICP-MS) after single dose; type: in vivo, BALB/c mice; details: for serum half-life (fast), two-phase decay model / serum half-life (slow), two-phase decay model / serum half-life, one-phase decay model: serum platinum
# Procedure: Blood was drawn after 5 min, 30 min, 6 h, 24 h, 72 h, 1 and 2 weeks from the facial vein as published. Serum was isolated by centrifugation at 900 g for 10 min for two times and stored at –80 °C. In addition, blood samples and tissues from the allograft experiment after the two-weeks therapy experiment were analyzed. Digestion of tissue (approx. 10–30 mg gravimetrically weighted) was performed with 2 mL of approx. 20% nitric acid and 100 µL H2O2 using an open vessel graphite digestion system (coated graphite heating plate, coated sample holder-top for 25 mL vials, perfluoroalkoxy (PFA) vials and PFA lids; Labter, ODLAB; AHF Analysentechnik AG; Germany). HNO3 (67–69%, suprapur for trace metal analysis, NORMATOM; VWR international, Austria) and conc. H2O2 suprapur (Merck, 30%) were used without further purification. Ultrapure water (18.2 MΩ cm, Milli-Q Advantage, Darmstadt, Germany) was used for all dilutions for ICP-MS measurements. Platinum and rhenium standards for ICP-MS measurements were derived from CPI International (Amsterdam, The Netherlands). The platinum content was determined using an Agilent 7800 ICP-MS instrument. The ICP-MS Agilent 7800® (Agilent Technologies, Tokyo, Japan) was equipped with an Agilent SPS 4 autosampler (Agilent Technologies, Tokyo, Japan) and a MicroMist nebulizer at a sample uptake rate of approx. 0.2 mL/min. The Agilent MassHunter® software package (Workstation Software, version C.01.04, Build 544.17, Patch 3, 2018) was used for data processing. The instrument was tuned on a daily basis to achieve maximum sensitivity. In case of the single-dose experiment, serum area-under the curve (AUC) and serum half-life (one-phase and two-phase decay models) were determined using the respective non-linear fit regression models of GraphPad Prism software.
# [8] = system: CT26 allografts; test: In vivo anticancer activity, CT26 allografts; parameters: species or system BALB/c mice; details: for tumor doubling time extended: CT26 allografts, equimolar doses; for tumor doubling time extended / maximal tumor growth inhibition: twice a week for two weeks; for maximal tumor growth inhibition: day 11, CT26 allografts, equimolar to 9 mg/kg oxaliplatin i.v.; for tumor volumes as compared to solvent controls: first two weeks of treatment
# Procedure: (§3) Eight-to nine-week-old female BALB/c mice bred in-house (originally Janvier) were kept in pathogen-free conditions and controlled environment with 12 h light-dark cycle. CT26 cells (5 × 10^5 in 50 µL serum-free RPMI medium) were injected subcutaneously (s.c.) into the right flank of the animals. […] Tumor growth was evaluated by daily recording of tumor size by caliper measurement. […] The reasons were primarily either enhanced tumor size or ulceration. For drug distribution (digestion and ICP-MS measurement details see below), histological and GSH determination experiments, mice were treated twice during one week and sacrificed 24 h after the last drug dosing. The animal experiments were performed according to the regulations of the Ethics Committee for the Care and Use of Laboratory Animals at the Medical University Vienna (proposal number BMBWF-V/3b 2020-0.380.502).
# [9] = system: CT26 tumor tissue; test: Tumor tissue markers (mitoses, Ki-67, pH2AX, GSH) after one week of therapy; type: in vivo, BALB/c mice; details: for number of mitotic tumor cells as compared to solvent controls: H&E-stained sections
# Procedure: (§4) Eight-to nine-week-old female BALB/c mice bred in-house (originally Janvier) were kept in pathogen-free conditions and controlled environment with 12 h light-dark cycle. CT26 cells (5 × 10^5 in 50 µL serum-free RPMI medium) were injected subcutaneously (s.c.) into the right flank of the animals. […] Tumor growth was evaluated by daily recording of tumor size by caliper measurement. […] For drug distribution (digestion and ICP-MS measurement details see below), histological and GSH determination experiments, mice were treated twice during one week and sacrificed 24 h after the last drug dosing. The animal experiments were performed according to the regulations of the Ethics Committee for the Care and Use of Laboratory Animals at the Medical University Vienna (proposal number BMBWF-V/3b 2020-0.380.502).
# (§5) Formalin-fixed, paraffin-embedded tissue sections were prepared from tumors and animal organs (animal experiment details see above) and H&E stains performed by standard methods. Mouse-specific Ki-67 rabbit mAb (#12202) and mouse-specific pH2AX rabbit mAb (#9718) were purchased from Cell Signaling Technology (Beverly, MA, USA) and used following the manufacturer’s recommendations in a dilution of 1:200 (Ki-67) and 1:500 (pH2AX) for immunohistochemical staining.
# as §2
# [10] = system: kidney, lung, liver sections; test: pH2AX DNA damage staining in healthy organs; type: in vivo, BALB/c mice; details: lung and kidney sections
# Procedure: as §3, §5
# [11] = Tolerability in mice; type: in vivo, BALB/c mice
# Procedure: as §3
# [12] = system: A2780 cells; test: 72 h cell viability (MTT) assay; type: cell-based, human; details: A2780, 72 h continuous exposure; read-out: IC50 value (95% confidence interval)
# Procedure: as §1
# [13] = system: A2780/Cis cells; test: 72 h cell viability (MTT) assay; type: cell-based, human
# Procedure: as §1
# [14] = parameters: method as in PMID 7895599; details: patients; cited from earlier work
# [15] = biological target: T1, albumin (Bos taurus, UniProt P02769); test: Albumin binding in fetal calf serum by SEC-ICP-MS; type: in vitro ADME; details: fetal calf serum 37 °C, 100 μM
# T1 construct: tissue Sigma-Aldrich; host or cells: fetal calf serum
# T1 sequence (P02769 25-607): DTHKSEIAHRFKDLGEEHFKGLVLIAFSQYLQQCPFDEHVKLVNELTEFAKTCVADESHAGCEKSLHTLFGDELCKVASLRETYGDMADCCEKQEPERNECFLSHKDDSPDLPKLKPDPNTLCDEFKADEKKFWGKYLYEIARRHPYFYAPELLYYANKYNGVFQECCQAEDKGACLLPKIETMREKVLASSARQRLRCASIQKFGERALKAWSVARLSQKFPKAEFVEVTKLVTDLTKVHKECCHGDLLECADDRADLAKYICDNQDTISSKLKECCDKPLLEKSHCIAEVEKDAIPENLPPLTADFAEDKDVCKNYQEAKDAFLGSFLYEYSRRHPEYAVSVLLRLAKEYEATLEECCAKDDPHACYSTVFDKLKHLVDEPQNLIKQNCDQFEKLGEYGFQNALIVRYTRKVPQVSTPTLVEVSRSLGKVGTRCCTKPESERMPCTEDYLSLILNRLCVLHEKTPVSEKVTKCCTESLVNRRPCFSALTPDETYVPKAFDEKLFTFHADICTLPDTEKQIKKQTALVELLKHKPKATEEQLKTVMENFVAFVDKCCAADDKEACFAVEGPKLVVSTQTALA
# Procedure: Fetal calf serum was purchased from Sigma-Aldrich and buffered with 150 mM phosphate buffer (pH 7.4) to guarantee a stable pH. The platinum(IV) complexes were dissolved in 150 mM phosphate buffer (pH 7.4) to 1 mM and diluted 1:10 in serum to obtain a final concentration of 100 μM. The samples were then incubated in the autosampler at 37 °C for 24 h and analyzed at 0 h, 1 h, 4 h, and 24 h. Between each sample, a pure water blank was measured. For SEC-ICP-MS measurements, an Agilent 1260 Infinity system coupled to an Agilent 7800 ICP-MS equipped with a dynamic reaction cell was used. Oxygen (purity 5.5, Messer AustriaGmbH, Gumpoldskirchen, Austria) was used as reaction gas at 30% and 0.9 L/min flow.
# [16] = Tissue/organ platinum distribution in CT26 allograft mice; type: in vivo, BALB/c mice; details: two i.v. doses in one week, 24 h after second dosing
# Procedure: as §4
smiles,measurement,setting,value
"O=C1[O][Pt]2([NH][C@@H]3CCCC[C@H]3[NH]2)[O]C1=O [oxaliplatin, reference compound]",IC50,[1],> 10 µM
same,IC50,[2],10.3 µM
same,IC50,[3],0.58 µM
same,IC50,[4],3.4 µM
same,intracellular accumulation in HCT116/OxR as compared to parental HCT116,[5],significantly reduced
same,impact on cellular GSH content,[6],did not alter the GSH content
same,"serum half-life (fast), two-phase decay model","[7]; single equimolar dose, mice",0.1528 h
same,"serum half-life (slow), two-phase decay model","[7]; single equimolar dose, mice",15.38 h
same,"serum half-life, one-phase decay model","[7]; single equimolar dose, mice",0.2624 h
same,tumor doubling time extended,[8],1.3 fold
same,maximal tumor growth inhibition,[8],51.3%
same,tumor volumes as compared to solvent controls,[8],significantly reduced tumor volumes
same,number of mitotic tumor cells as compared to solvent controls,[9]; one week of therapy,significantly reduced
same,GSH content in malignant tissue,[9]; one week of therapy,distinctly reduced the content of GSH
same,DNA damage (pH2AX) in healthy organs,[10],induced pH2AX-positive cells in both lung and kidney samples
same,maximum tolerated dose (MTD),[11],9 mg/kg
"N.N.[Cl][Pt][Cl] [cisplatin, reference compound]",IC50,[12],1.9 µM
same,IC50,"[13]; A2780/Cis, 72 h continuous exposure, read-out: IC50 value (95% confidence interval)",7.7 µM
same,resistance factor,[13]; IC50 A2780/Cis divided by IC50 A2780,4.1
"CCCCS(=N)(=O)CC[C@H](N)C(=O)O (stereo partly drawn) [BSO, L-Buthionine-S,R-sulfoximine]",plasma half-life,[14],< 2 h
"CCCCS(=N)(=O)CCC(NC(=O)[O][Pt]1([O]C(=O)NCCCCCN2C(=O)C=CC2=O)[O]C(=O)C(=O)[O]1)C(=O)O.NC1CCCCC1N (mixture of isomers) [BSO-OxMal, (OC-6-24)-((1 S)-3-(Butylsulfonimidoyl)-1-carboxypropyl)carbamato(1 R,2 R)-1,2-cyclohexanediamino(5-(2,5-dioxo-2,5-dihydro-1H-pyrrol-1-yl)pentyl)carbamatooxalatoplatinum(IV)]",bound to albumin fraction,[15]; t 0 h,76%
same,free (low molecular weight fraction),[15]; t 0 h,24%
same,bound to albumin fraction,[15]; t 1 h,100%
same,free (low molecular weight fraction),[15]; t 1 h,0%
same,bound to albumin fraction,[15]; t 4 h,100%
same,free (low molecular weight fraction),[15]; t 4 h,0%
same,bound to albumin fraction,[15]; t 24 h,97%
same,free (low molecular weight fraction),[15]; t 24 h,3%
same,serum half-life higher as compared to oxaliplatin,[7]; depending on the regression model used,more than 10 fold
same,"serum half-life (fast), two-phase decay model","[7]; single equimolar dose, mice",1.217 h
same,"serum half-life (slow), two-phase decay model","[7]; single equimolar dose, mice",22.28 h
same,"serum half-life, one-phase decay model","[7]; single equimolar dose, mice",3.968 h
same,increase of AUC (total area) as compared to oxaliplatin,"[7]; single equimolar dose, mice",> 12 fold
same,increased serum platinum levels in comparison to oxaliplatin,[16],more than 20 fold
same,tumor doubling time extended,[8],1.8 fold
same,overall survival,"[8]; Kaplan Meier, Mantel-Cox test",significantly increased overall survival
same,maximal tumor growth inhibition,[8],61.2%
same,tumor volumes as compared to solvent controls,[8],significantly reduced tumor volumes
same,number of mitotic tumor cells as compared to solvent controls,[9]; one week of therapy,significantly reduced
same,DNA damage (pH2AX) in tumor,[9]; non-necrotic parts of the tumor,distinctly enhanced DNA damage as compared to oxaliplatin
same,Ki-67 antiproliferative effect,"[9]; non-necrotic tumor regions, one week of therapy",significantly stronger antiproliferative effect
same,GSH content in malignant tissue,[9]; one week of therapy,significantly stronger effect
same,DNA damage (pH2AX) in healthy organs,[10],avoids renal DNA damage
